Data published in PubChem BioAssay AID1195 (EPA DSSTox, 2008).

Tested on: human maximum recommended daily dose, FDA database
Experiment: DSSTox (FDAMDD) FDA Maximum (Recommended) Daily Dose Database
Details: hits give low values
How it was run: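 MRDD values come from clinical trials with daily oral dosing, usually for 3–12 months, for the average adult, in mg/day converted to mg/kg-bw/day assuming 60 kg. Antineoplastic mg/m2 doses are divided by 37. Activity score maps log10(1/MRDD mmol) onto 1–100.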

[1] = TherapeuticCategory: antibacterial
[2] = TherapeuticCategory: glucocorticoid, anti inflammatory
[3] = TherapeuticCategory: antihypertensive
[4] = TherapeuticCategory: antiparkinsonian
[5] = TherapeuticCategory: diagnostic aid
[6] = TherapeuticCategory: anti inflammatory
[7] = TherapeuticCategory: antipsychotic
[8] = TherapeuticCategory: sedative, hypnotic
[9] = TherapeuticCategory: antihistaminic
[10] = TherapeuticCategory: antiemetic

## CCC(C)C(CC)C(=O)NC(N)=O (configuration not stated)
TherapeuticCategory: hypnotic
  maximum recommended daily dose (mmol/kg-bw/day): 0.0358

## Cc1cc2nc3c(=O)[nH]c(=O)nc-3n(C[C@H](O)[C@H](O)[C@H](O)COP(=O)(O)O)c2cc1C
TherapeuticCategory: enzyme cofactor vitamin
  maximum recommended daily dose (mmol/kg-bw/day): 0.0011

## CC(C)NCC(O)c1ccc(NS(C)(=O)=O)cc1 (configuration not stated)
TherapeuticCategory: antianginal, antiarrhythmic, antihypertensive
  maximum recommended daily dose (mmol/kg-bw/day): 0.0196

## CN[C@@H]1[C@@H](O)[C@@H](O[C@@H]2[C@@H](O)[C@H](O[C@H]3O[C@H](C(C)N)CC[C@H]3N)[C@@H](N)C[C@H]2N)OC[C@]1(C)O (some centres not stated)
[1]
  maximum recommended daily dose (mmol/kg-bw/day): 0.00647

## O[C@@H]([C@H](O)[C@@H](O)CBr)[C@@H](O)CBr
TherapeuticCategory: antineoplastic
  maximum recommended daily dose (mmol/kg-bw/day): 0.0135

## CCCCCCCCCCCCCCCC(=O)OCC(=O)[C@@]1(O)[C@H](C)C[C@H]2[C@@H]3CCC4=CC(=O)C=C[C@]4(C)[C@@]3(F)[C@@H](O)C[C@@]21C
[2]
  maximum recommended daily dose (mmol/kg-bw/day): 0.000238

## CC(=O)OCC1=C(C(=O)O)N2C(=O)[C@@H](NC(=O)[C@H](N)c3ccccc3)[C@H]2SC1
[1]
  maximum recommended daily dose (mmol/kg-bw/day): 0.0821

## C=CC[N+]1([C@H]2C[C@H]3[C@@H]4CC[C@H]5C[C@H](O)[C@@H](N6CCOCC6)C[C@]5(C)[C@H]4CC[C@]3(C)[C@H]2OC(C)=O)CCCC1
TherapeuticCategory: skeletal muscle relaxant, neuromuscular blocker
  maximum recommended daily dose (mmol/kg-bw/day): 0.00197

## C=CCOc1ccc(CC(=O)O)cc1Cl
TherapeuticCategory: analgesic, antipyretic, anti inflammatory
  maximum recommended daily dose (mmol/kg-bw/day): 0.00737

## CN(C)CCCOC1(Cc2ccccc2)CCCCCC1
TherapeuticCategory: vasodilator
  maximum recommended daily dose (mmol/kg-bw/day): 0.0345

## CCOC(=O)[C@H](CCc1ccccc1)N[C@@H](C)C(=O)N1[C@H](C(=O)O)C[C@H]2CCCC[C@@H]21
[3]
  maximum recommended daily dose (mmol/kg-bw/day): 0.00124

## C[C@@](Cc1ccc(O)c(O)c1)(NN)C(=O)O
[4]
  maximum recommended daily dose (mmol/kg-bw/day): 0.00368

## OCC(O)CO
[5]
  maximum recommended daily dose (mmol/kg-bw/day): 10.8

## CC(C(=O)O)c1ccc2c(c1)Cc1cccnc1O2 (configuration not stated)
[6]
  maximum recommended daily dose (mmol/kg-bw/day): 0.0147

## CN(C)CCCN1c2ccccc2Sc2ccccc21
[7]
  maximum recommended daily dose (mmol/kg-bw/day): 0.0587

## CC(=O)Oc1ccc(C(c2ccc(OC(C)=O)cc2)c2ccccn2)cc1
TherapeuticCategory: cathartic
  maximum recommended daily dose (mmol/kg-bw/day): 0.000692

## CN1C(=O)C(O)N=C(c2ccccc2)c2cc(Cl)ccc21 (configuration not stated)
[8]
  maximum recommended daily dose (mmol/kg-bw/day): 0.000831

## OC[C@H]1OC(O)[C@H](O)[C@@H](O)[C@@H]1O (some centres not stated)
TherapeuticCategory: fluid and nutrient replenisher
  maximum recommended daily dose (mmol/kg-bw/day): 0.555

## Clc1ccc(C/C(=C\CN2CCCC2)c2ccccc2)cc1
[9]
  maximum recommended daily dose (mmol/kg-bw/day): 0.00481

## CNC1(c2ccccc2Cl)CCCCC1=O (configuration not stated)
TherapeuticCategory: anesthetic
  maximum recommended daily dose (mmol/kg-bw/day): 0.00841

## O=c1[nH]c2ccccc2n1C1CCN(CCCC(c2ccc(F)cc2)c2ccc(F)cc2)CC1
[7]
  maximum recommended daily dose (mmol/kg-bw/day): 0.000362

## COc1ccc(C2C(=O)c3ccccc3C2=O)cc1
TherapeuticCategory: anticoagulant
  maximum recommended daily dose (mmol/kg-bw/day): 0.0198

## Nc1c(N=Nc2ccc(-c3ccc(N=Nc4cc(S(=O)(=O)O)c5ccccc5c4N)cc3)cc2)cc(S(=O)(=O)O)c2ccccc12
[5]
  maximum recommended daily dose (mmol/kg-bw/day): 0.00538

## CCOC(=O)c1ccc(N)cc1
TherapeuticCategory: topical anesthetic
  maximum recommended daily dose (mmol/kg-bw/day): 0.00726

## C#C[C@]1(O)CC[C@H]2[C@@H]3CCC4=C[C@@H](O)CC[C@@H]4[C@H]3CC[C@@]21C
TherapeuticCategory: progestogen
  maximum recommended daily dose (mmol/kg-bw/day): 5.56e-05

## CC(=O)O[C@H]1C[C@H](O[C@H]2[C@@H](O)C[C@H](O[C@H]3[C@@H](O)C[C@H](O[C@H]4CC[C@@]5(C)[C@H](CC[C@@H]6[C@@H]5C[C@@H](O)[C@]5(C)[C@@H](C7=CC(=O)OC7)CC[C@]65O)C4)O[C@@H]3C)O[C@@H]2C)O[C@H](C)[C@H]1O[C@@H]1O[C@H](CO)[C@@H](O)[C@H](O)[C@H]1O
TherapeuticCategory: cardiotonic
  maximum recommended daily dose (mmol/kg-bw/day): 3.38e-05

## CN(C)CCOC(c1ccccc1)c1ccccc1
[9]
  maximum recommended daily dose (mmol/kg-bw/day): 0.00326

## CCN(CC)CCOC(=O)C1(c2ccccc2)CCCC1
TherapeuticCategory: antitussive
  maximum recommended daily dose (mmol/kg-bw/day): 0.0173

## N[C@@H](Cc1ccc(O)c(O)c1)C(=O)O
[4]
  maximum recommended daily dose (mmol/kg-bw/day): 0.674

## O=C(Cc1cccs1)N[C@@H]1C(=O)N2C(C(=O)[O-])=C(C[n+]3ccccc3)CS[C@H]12
[1]
  maximum recommended daily dose (mmol/kg-bw/day): 0.161

## CN1C(CCl)Nc2cc(Cl)c(S(N)(=O)=O)cc2S1(=O)=O (configuration not stated)
TherapeuticCategory: diuretic, antihypertensive
  maximum recommended daily dose (mmol/kg-bw/day): 0.000464

## CCN(CC)CCN1C(=O)CN=C(c2ccccc2F)c2cc(Cl)ccc21
[8]
  maximum recommended daily dose (mmol/kg-bw/day): 0.00129

## NNC(=O)c1ccncc1
[1]
  maximum recommended daily dose (mmol/kg-bw/day): 0.0729

## COCCOC(=O)C1=C(C)NC(C)=C(C(=O)OC(C)C)C1c1cccc([N+](=O)[O-])c1 (configuration not stated)
TherapeuticCategory: cerebral vasodilator
  maximum recommended daily dose (mmol/kg-bw/day): 0.0143

## CC(=O)OCC(=O)[C@@]1(O)[C@H](C)C[C@H]2[C@@H]3CCC4=CC(=O)C=C[C@]4(C)[C@@]3(F)C(O)C[C@@]21C (some centres not stated)
[2]
  maximum recommended daily dose (mmol/kg-bw/day): 0.000345

## CN(Cc1cnc2nc(N)nc(N)c2n1)c1ccc(C(=O)N[C@@H](CCC(=O)O)C(=O)O)cc1
TherapeuticCategory: antineoplastic, antirheumatic
  maximum recommended daily dose (mmol/kg-bw/day): 0.0011

## CN1[C@@H]2CCC[C@H]1CC(NC(=O)c1nn(C)c3ccccc13)C2 (some centres not stated)
[10]
  maximum recommended daily dose (mmol/kg-bw/day): 3.2e-05

## CC(C)(C)NC[C@H](O)COc1ccccc1C1CCCC1
TherapeuticCategory: antihypertensive, antianginal, antiarrhythmic
  maximum recommended daily dose (mmol/kg-bw/day): 0.00456

## O=C(O)c1cc(-c2ccc(F)cc2F)ccc1O
TherapeuticCategory: analgesic, anti inflammatory
  maximum recommended daily dose (mmol/kg-bw/day): 0.0999

## N[C@@H](CS)C(=O)O
TherapeuticCategory: none
  maximum recommended daily dose (mmol/kg-bw/day): 0.825

## CCOC(=O)c1ncn2c1CN(C)C(=O)c1cc(F)ccc1-2
TherapeuticCategory: benzodiazepine antagonist
  maximum recommended daily dose (mmol/kg-bw/day): 0.000165

## COC(=O)[C@H]1[C@H]2C[C@@H]3c4[nH]c5cc(OC)ccc5c4CCN3C[C@H]2C[C@@H](OC(=O)/C=C/c2cc(OC)c(OC)c(OC)c2)[C@@H]1OC
[3]
  maximum recommended daily dose (mmol/kg-bw/day): 2.63e-05

## CCSc1ccc2c(c1)N(CCCN1CCN(C)CC1)c1ccccc1S2
[10]
  maximum recommended daily dose (mmol/kg-bw/day): 0.00125

## CCN(CC)CCc1nc(-c2ccccc2)no1
[6]
  maximum recommended daily dose (mmol/kg-bw/day): 0.0136

## NC(=O)N1c2ccccc2C=Cc2ccccc21
TherapeuticCategory: analgesic, anticonvulsant
  maximum recommended daily dose (mmol/kg-bw/day): 0.113

## CNC(=O)c1c(I)c(NC(C)=O)c(I)c(C(=O)O)c1I
[5]
  maximum recommended daily dose (mmol/kg-bw/day): 0.163

## CC(S)C(=O)NCC(=O)O (configuration not stated)
TherapeuticCategory: hepatoprotectant, mucolytic, antidote to heavy metal poisoning
  maximum recommended daily dose (mmol/kg-bw/day): 0.204
